Assays:
[1] = Inhibition of Escherichia coli MTAN assessed as reduction in methylthioadenosine phosphorolysis/hydrolysis
[2] = Inhibition of Neisseria meningitidis MTAN assessed as reduction in methylthioadenosine phosphorolysis/hydrolysi
[3] = test system: Escherichia coli; test: Ratio of Km to Ki for Escherichia coli MTAN assessed as reduction in methylthioadenosine phosphorolysis/hydrolysis
[4] = molecular target: T1, S-methyl-5'-thioadenosine phosphorylase (Homo sapiens, UniProt Q13126); test: Inhibition of human MTAP assessed as reduction in methylthioadenosine phosphorolysis/hydrolysis
T1 sequence (Q13126 whole entry): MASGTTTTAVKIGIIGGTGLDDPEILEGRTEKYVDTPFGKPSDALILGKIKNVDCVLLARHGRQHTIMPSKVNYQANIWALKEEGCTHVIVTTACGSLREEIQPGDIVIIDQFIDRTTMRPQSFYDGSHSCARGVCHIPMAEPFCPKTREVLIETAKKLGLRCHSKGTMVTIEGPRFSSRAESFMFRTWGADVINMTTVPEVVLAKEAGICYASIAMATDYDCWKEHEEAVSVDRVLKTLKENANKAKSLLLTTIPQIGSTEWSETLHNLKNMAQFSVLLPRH

Row | SMILES | Ki [1] | Ki [2] | Ratio [3] | Ki [4]
1 | CSC[C@H]1N[C@@H](c2c[nH]c3c(N)ncnc23)[C@H](O)[C@@H]1O | 0.08 nM | 0.36 nM |  | 
2 | CSC[C@@H](CO)NCc1c[nH]c2c(N)ncnc12 |  |  | 1200 | 4.4 nM
3 | CSC[C@H](CO)NCc1c[nH]c2c(N)ncnc12 |  |  |  | 34 nM
4 | CSC[C@@H](O)[C@@H](CO)NCc1c[nH]c2c(N)ncnc12 |  |  |  | 5.2 nM
5 | CSC[C@H](O)[C@@H](CO)NCc1c[nH]c2c(N)ncnc12 |  |  |  | 87 nM
6 | CSC[C@@H](O)[C@H](CO)NCc1c[nH]c2c(N)ncnc12 |  |  |  | 34 nM
7 | CSCC(CO)(CO)NCc1c[nH]c2c(N)ncnc12 | 5.8 nM | 4 nM |  | 
8 | CSC[C@@H](O)CNCc1c[nH]c2c(N)ncnc12 | 40 nM | 36 nM |  | 602 nM
9 | CSC[C@H](CO)N[C@H](CO)c1c[nH]c2c(N)ncnc12 | 1720 nM | 47 nM |  | 
10 | CSC[C@H]1CN(Cc2c[nH]c3c(N)ncnc23)C[C@@H]1O |  | 0.14 nM |  | 
11 | CSCC(CO)NCc1c[nH]c2c(N)ncnc12 (racemic) |  | 0.8 nM |  | 12 nM
12 | CSCC(CO)CNCc1c[nH]c2c(N)ncnc12 (racemic) | 0.36 nM | 1.2 nM |  | 10 nM
13 | CSC[C@@H](CNCc1c[nH]c2c(N)ncnc12)[C@@H](O)CO (racemic) | 9 nM | 5 nM |  | 34 nM
14 | CSC[C@@H](CN(C)Cc1c[nH]c2c(N)ncnc12)[C@@H](O)CO (racemic) | 2300 nM | 61 nM | 19 | 12 nM
15 | CSC[C@H](O)[C@@H](CO)CN(C)Cc1c[nH]c2c(N)ncnc12 (racemic) | 401 nM | 132 nM |  | 105 nM
16 | CSC[C@H](O)[C@@H](O)CN(C)Cc1c[nH]c2c(N)ncnc12 (racemic) | 202 nM | 85 nM |  | 368 nM
